# Assay results as given in PubChem BioAssay AID1189 (EPA DSSTox, 2008).
# Activity calls are given as the source filed them.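 The calls were made as follows: active = a tumor-causing dose value with its tumor site reported for any sex and species group of a rodent or other animal cancer study; inconclusive = only studies judged inadequate by the national testing program; inactive = tested in at least one study, none positive.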 Numbered stars: 1 amine (or outer) side, 2 acyl side, 3 side chain; on linkers, the order of the positions; unused ones are H or OH. Bridge positions count the residues as written; N and C are the ends. Square brackets hold non-standard residues; d marks the D form. Peptide text beside a SMILES is read from it. I, II: the chains in the order shown. Actinocin(9to1) = Cc1c2oc3c(C)ccc(C(=O)[*:1])c3nc-2c(C(=O)[*:2])c(N)c1=O; NMeV = CN[C@H](C(=O)O)C(C)C; Sar = CNCC(=O)O
# Experiment: DSSTox (CPDBAS) Carcinogenic Potency Database Summary SingleCellCall Results
# Conditions: animal chronic carcinogenicity bioassays, CPDB summary call
# Procedure, shortened: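 Literature-derived summary: each substance receives an overall carcinogenic/non-carcinogenic category drawn from long-term bioassays in rats, mice, hamsters, dogs or primates, using the most positive sex-species experiment and minimal evidence criteria.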
row,SMILES,outcome
1,CCC(CC)C(=O)NC(N)=O,inactive; active
2,O=C(O)CCl,inactive; active
3,OCCBr,active; inactive
4,"Cc1c2oc3c(C)ccc(C(=O)N[C@@H]4C(=O)N[C@H](C(C)C)C(=O)N5CCC[C@H]5C(=O)N(C)CC(=O)N(C)[C@@H](C(C)C)C(=O)O[C@@H]4C)c3nc-2c(C(=O)N[C@@H]2C(=O)N[C@H](C(C)C)C(=O)N3CCC[C@H]3C(=O)N(C)CC(=O)N(C)[C@@H](C(C)C)C(=O)O[C@@H]2C)c(N)c1=O (I: T[dV]P[Sar][NMeV] / II: T[dV]P[Sar][NMeV]; ester I:1-I:C, II:1-II:C; linker I:N-II:N via Actinocin(9to1))",active; inactive
5,CCSCC[C@H](N)C(=O)O,active; inactive
6,O=NN1CCCCCCCCCCCC1,active
7,CN(C)C(=O)Nc1ccc(Cl)cc1,active
8,O=C1CCC(=O)O1,inactive
9,C/C=N/N(C)C=O,active; inactive
10,COc1cc(/C=N/NC(=O)c2ccncc2)ccc1O,active; inactive
11,CNC(=O)c1c(N(C)N=O)ncn1C,active
12,Clc1cc2c(cc1Cl)Oc1cc(Cl)c(Cl)cc1O2,active; inactive
13,CCCC[C@H](C)[C@@H](OC(=O)C[C@H](CC(=O)O)C(=O)O)[C@@H](C[C@H](C)C[C@@H](O)CCCC[C@@H](O)C[C@H](O)[C@H](C)N)OC(=O)C[C@H](CC(=O)O)C(=O)O,active; inactive
14,Clc1cccc(-c2cc(Cl)cc(Cl)c2)c1,active
15,NC(=O)N(CCc1ccccc1)N=O,active
16,c1ccc2c(c1)ccc1cc3c(ccc4ccccc43)cc12,active
17,COc1c(Cl)c(Cl)c(Cl)c(Cl)c1Cl,active
18,ClCOCCl,active; inactive
19,N=c1ccn2c(n1)O[C@H]1[C@H](O)[C@@H](CO)O[C@H]12,inactive
20,COP(=S)(OC)Oc1ccc([N+](=O)[O-])cc1,inactive
21,CN1C(C(=O)Nc2ccccn2)=C(O)c2sc(Cl)cc2S1(=O)=O,inactive
22,Cn1c(=O)c2c(ncn2C)n(C)c1=O,inactive
23,CCc1cccc2c3c([nH]c12)C(CC)(CC(=O)O)OCC3 (stereo not given),inactive
24,CC1=CC(=O)NS(=O)(=O)O1,inactive

row,SMILES,outcome
1,CC(Cc1ccccc1)NN (stereo not given),inactive
2,C[C@H]1CCCC(=O)CCC/C=C/c2cc(O)cc(O)c2C(=O)O1,active
3,O=[N+]([O-])c1cc(N(CCO)CCO)ccc1NCCO,inactive
4,Cc1ccc(O)c(C(C)(C)C)c1,inactive
5,Nc1ccc(Cl)c(N)c1,active
6,Cc1ccccc1OCC(O)CNCCn1cc(C)c(=O)[nH]c1=O (stereo not given),inactive
7,O=NN(CCCC(F)(F)F)CCCC(F)(F)F,active
8,CC(=O)Oc1ccccc1C(=O)O,inactive
9,C=CC1=C(C)C2=CC3=NC(=C(CC(=O)[O-])C4=NC(=C(C)C4=C([O-])[O-])C=c4[n-]c(c(C)c4CC)=CC1=N2)[C@@H](CCC(=O)[O-])[C@@H]3C.[Cu+2].[Na+].[Na+].[Na+],inactive
10,O=[N+]([O-])c1cc([As](=O)(O)O)ccc1O,inactive
11,[Cl-].[Hg+],inactive; active
12,CN(C)C(=S)S,inactive
13,CS(=O)(=O)OCCCCOS(C)(=O)=O,inactive
14,COP(=O)(OC)C(O)C(Cl)(Cl)Cl (stereo not given),inactive
15,CCC1(c2ccccc2)C(=O)N=C(O)NC1=O (stereo not given),active
16,NC(N)=S,active; inactive
17,C[N+](C)(C)CCCl,inactive
18,c1ccc(OCC2CO2)cc1 (stereo not given),active
19,CCOc1ccc(NC(C)=O)cc1N,active
20,COc1cc(-c2ccc(N=Nc3c(S(=O)(=O)O)cc4cc(S(=O)(=O)O)cc(N)c4c3O)c(OC)c2)ccc1N=Nc1c(S(=O)(=O)O)cc2cc(S(=O)(=O)O)cc(N)c2c1O,active
21,O=C(Oc1ccccc1)Oc1ccccc1,inactive
22,CCCCCNN,active
23,NCCc1ccc(O)c(O)c1,inactive
24,C[C@]12C=CC(=O)C=C1CC[C@@H]1[C@@H]2[C@@H](O)C[C@@]2(C)[C@H]1CC[C@]2(O)C(=O)CO,active

row,SMILES,outcome
1,O=C1C(c2[nH]c3ccc(S(=O)(=O)O)cc3c2O)=Nc2ccc(S(=O)(=O)O)cc21,inactive; active
2,Cc1ccccc1[N+](=O)[O-],active
3,Cc1cc2c(nc1N)[nH]c1ccccc12,active
4,CN(C)C(=O)NC1CC2CC1C1CCCC21 (stereo not given),inactive
5,c1ccc(-c2ccccc2)cc1,inactive; active
6,Nc1cccc2c(N)cccc12,active
7,Nc1ccc(Oc2ccc(N)c(N)c2)cc1,active
8,CC(C)CCC[C@@H](C)[C@H]1CC[C@H]2[C@@H]3CC=C4C[C@@H](OC(=O)Cc5ccc(N(CCCl)CCCl)cc5)CC[C@]4(C)[C@H]3CC[C@]12C,active
9,CCCc1ccc2c(c1)OCO2,active; inactive
10,ClCC(Cl)Cl,active
11,Cc1cnc2ccc3c(nc(N)n3C)c2n1,active
12,O=P(OC(CCl)CCl)(OC(CCl)CCl)OC(CCl)CCl,active
13,CCCOC(=O)c1cc(O)c(O)c(O)c1,inactive
14,C/C=C/c1ccc(OC)cc1,inactive
15,CC(O)CN(CCO)N=O (stereo not given),active
16,O=NN1CCC(O)C1 (stereo not given),active
17,C/C=C/Cl,active
18,CCNNC(=O)[C@@H]1[C@H](c2cc(OC)c(OC)c(OC)c2)c2cc3c(cc2[C@H](O)[C@H]1CO)OCO3,inactive
19,Cn1cnc2nc(N)[nH]c(=O)c21,inactive
20,Cc1ccc(N)cc1Cl,inactive; active
21,CN1C(=O)CN=C(c2ccccc2)c2cc(Cl)ccc21,inactive
22,CCC[CH2][Sn]([CH2]CCC)([CH2]CCC)[O][Sn]([CH2]CCC)([CH2]CCC)[CH2]CCC,inactive
23,CC(N)=S,active
24,[O]=[Cr][O][Cr]=[O],inactive

row,SMILES,outcome
1,CC(C)C/C=N/N(C)C=O,active
2,Nc1ncn[nH]1,active; inactive
3,c1ccc2c(c1)[nH]c1ccccc12,active
4,CC1=C(C(=O)OCCN(Cc2ccccc2)c2ccccc2)C(c2cccc([N+](=O)[O-])c2)C(P2(=O)OCC(C)(C)CO2)=C(C)N1 (stereo not given),inactive
5,CCOC(=O)C1OC1(C)c1ccccc1 (stereo not given),inactive
6,COc1ccc(O)c(C(C)(C)C)c1,active; inactive
7,CCn1c2ccccc2c2cc(N)ccc21,active
8,CC(COc1ccccc1)N(CCCl)Cc1ccccc1 (stereo not given),active; inactive
9,O=C1c2ccccc2C(=O)c2ccccc21,inactive
10,O=C(O)CCCC/C=C(\c1ccccc1)c1cccnc1,inactive; active
11,CCC1(CCC(C)C)C(=O)NC(=O)NC1=O,inactive
12,NCC(=O)O,active
13,O=S(=O)(O)c1ccc2c(N=Nc3ccc(S(=O)(=O)O)c4ccccc34)c(O)c(S(=O)(=O)O)cc2c1,active
14,NC(=O)NC1NC(=O)NC1=O (stereo not given),inactive
15,Oc1cc2c(cc1O)[C@H]1c3ccc(O)c(O)c3OC[C@@]1(O)C2,active
16,O=S1(=O)N=C(O)c2ccccc21,inactive
17,ClC1=C(Cl)[C@@]2(Cl)[C@@H]3[C@@H](Cl)[C@H](Cl)C[C@@H]3C1(Cl)C2(Cl)Cl,active
18,Nc1cnn([C@@H]2O[C@H](CO)[C@@H](O)[C@H]2O)c(=O)n1,inactive
19,CCN(Cc1cccc(S(=O)(=O)[O-])c1)c1ccc(C(=C2C=CC(=[N+](C)C)C=C2)c2ccc(N(CC)Cc3cccc(S(=O)(=O)O)c3)cc2)cc1,active
20,CC(=O)OC/C=C(C)/C=C/C=C(C)/C=C/C1=C(C)CCCC1(C)C,active; inactive
21,COc1ccc(CCN2CCC(Nc3nc4ccccc4n3Cc3ccc(F)cc3)CC2)cc1,inactive
22,Cn1cnc([N+](=O)[O-])c1Sc1ncnc2nc[nH]c12,active
23,ClC1=C(Cl)[C@]2(Cl)[C@@H]3[C@@H]4C[C@@H]([C@H]5O[C@@H]45)[C@@H]3[C@@]1(Cl)C2(Cl)Cl,active
24,NC(=O)c1ccncc1,inactive

row,SMILES,outcome
1,CC(=O)O[C@]1(C(C)=O)CC[C@H]2[C@@H]3C=C(Cl)C4=CC(=O)[C@@H]5C[C@@H]5[C@]4(C)[C@H]3CC[C@@]21C,active; inactive
2,CCN(CC)C(=S)S[Te](SC(=S)N(CC)CC)(SC(=S)N(CC)CC)SC(=S)N(CC)CC,inactive
3,O=S1(=O)CC=CC1,inactive
4,CNC(=O)O/N=C(\SC)C(=O)N(C)C,inactive
5,O=S(=O)(Oc1ccc(Cl)cc1Cl)c1ccccc1,inactive
6,Nc1ccccc1N,active; inactive
7,OCN(CO)c1nc(N(CO)CO)nc(N(CO)CO)n1,active
8,CN(C)CCN(Cc1cccs1)c1ccccc1,inactive
9,COP(=O)(OC)O/C(=C\Cl)c1cc(Cl)c(Cl)cc1Cl,active; inactive
10,CN(C)P(=O)(N(C)C)N(C)C,active
11,O=[N+]([O-])c1ccc(-c2nc(N3CCOCC3)c3ccccc3n2)s1,active
12,Nc1c(F)c(N)c(F)c(F)c1F,active; inactive
13,C=CC,inactive
14,CN(N=O)c1ncnc2nc[nH]c12,active
15,C=CCNNCC=C,active; inactive
16,CCC1(c2ccccc2)C(=O)NC(=O)NC1=O,active
17,COc1ccc(C(=O)Nc2c(Cl)cncc2Cl)cc1OC1CCCC1,active
18,CCCCN(N=O)C(=N)N[N+](=O)[O-],inactive
19,CCNc1nc(Cl)nc(NC(C)C)n1,active
20,C=C(Cl)Cl,active
21,CN(CCCC(=O)c1cccnc1)N=O,active
22,CCCCCCCCCCCCC(=O)COC1=C(O)C(=O)O[C@@H]1[C@@H](O)CO,inactive
23,CCCCN(CC)C(=O)SCCC,inactive
24,Oc1ccccc1O,active
